In US9920069B2, “Compounds for treatment of fluoroquinolone-resistant bacteria” (The Board of Trustees of the University of Illinois, priority 2014, dated 2018):
≈ marks a conversion by molar mass, not a printed value. Read-outs that look alike come from different tables or passages of the source.

Columns and labels:
[1] = test system: S. aureus 29213 (WT GyrA and WT ParC); assay: microbe, parasite or virus in culture; assay type: cell-based; conditions: Staphylococcus aureus; WT GyrA and WT ParC; read-out: MIC against S. aureus 29213
Description: (§1) Susceptibility testing was performed in triplicate using the microdilution broth method as outlined by the Clinical and Laboratory Standards Institute CLSI^52. MH broth was used.

physchem [2] = conditions: organic solvent or mixture, thermodynamic from solid
physchem [3] = conditions: for Solubility in pH 7.4 PBS: three replicates ± SEM
Description: Enough PBS was added to make a 1 mg/mL solution. Compounds were then assessed by LC-MS and compared to a calibration curve to determine the solubility. […] Data shown is from three independent replicates±SEM. […] Between DMSO additions, the vial was vortexed and sonicated.
The compound was vortexed for ˜30 seconds before being placed into a bath sonicator (Cole Parmer, ultrasonic cleaner) for 1 h. […] The tubes were vortexed again for 30 s before being centrifuged at maximum speed (13,000×g) for 10 minutes. The supernatant was then filtered through a 0.22 μm syringe filter (Millipore Millex MP). […] Three independent replicates of each compound were performed. A calibration curve for each compound was generated from 1-400 μM by dissolving the compound in DMSO and making dilutions of the stock in DMSO. […] The concentration of the samples was calculated based on the calibration curves.

[4] = Pharmacokinetic assessment, serum by HPLC; assay type: in vivo, C57BL/6 mice; conditions: mouse serum
Description: FIG. 13. Pharmacokinetic analysis of DNM, DNM-2, and DNM-3. C57/BL6 mice were treated with 50 mg kg^−1 DNM, DNM-2, or DNM-3 via oral gavage. After the indicated time points (15, 30, 60, 120, 240, and 480 min), mice were sacrificed and the serum concentrations of DNM, DNM-2, and DNM-3 was determined by HPLC.
The animal studies (PK, in vivo toxicity and in vivo efficacy) were carried out in strict accordance with the recommendations in the Guide for the Care and Use of Laboratory Animals of the National Institutes of Health. […] In these studies, 10-12 week old female C57BL/6 mice purchased from Charles River were used. DNM, DNM-2, and DNM-3 were formulated as slurries at 8.3 mg mL^−1 in 25% Cremophor RH40/water (v/v). Before beginning the pharmacokinetic assessment, mice were first tested for their ability to tolerate the DNM, DNM-2, and DNM-3 at 50 mg kg^−1 (p.o.). […] At specified time points, mice were sacrificed and blood was collected, centrifuged, and the serum was frozen at −80° C. until analysis. The proteins in a 50 μL aliquot of serum were precipitated by the addition of 50 μL of acetonitrile and the sample was centrifuged to remove the proteins. Serum concentrations of DNM, DNM-2, and DNM-3 were determined by HPLC. PK parameters were determined using GraphPad Prism Version 5.00 for Windows.

[5] = subcutaneously, orally, or by IP injection; cited from earlier work
[6] = test system: K. pneuomoniae, S. aureus, or M. tuberculosis; conditions: mice infected with various bacteria; cited from earlier work
human topoisomerase II = molecular target: T1, human topoisomerase II (Homo sapiens, UniProt P11388); assay: Human topoisomerase decatenation assay; assay type: biochemical; conditions: lowest inhibiting / highest without significant inhibition
T1 construct: purchased Inspiralis
Description: The decatenation assay was performed with the Human Topo II Decatenation Assay Kit (Inspiralis) according to the manufacturer's instructions with minor modifications. First, a master mix was made containing 2 μL 10× assay buffer (500 mM Tris.HCl, pH 7.5, 1250 mM NaCl, 100 mM MgCl2, 50 mM DTT, 1000 μg/mL albumin), 0.67 μL 30 mM ATP, 1.34 μL 0.1 ng/μL kDNA, and 14.3 μL of nuclease free water per sample is made. DMSO or 30× compound is added to a 0.5 mL Eppendorf tube (0.67 μL per tube). The master mix is then added to each tube (18.3 μL per tube). Finally, 1 U of human topoisomerase (1 μL of 1 U/μL stock) is added to each tube for a final volume of 20 μL. The tubes are then incubated at 37° C. for 30 min. Reactions are stopped by the addition of 20 μL of 24:1 chloroform:isoamyl alcohol and 20 μL of stop dye (40% sucrose, 1 mM EDTA, 100 mM TrisHCl pH 7.5, 0.5 μg/mL bromophenol blue). Samples were run on 1% agarose gels containing 0.5 μg/mL ethidium bromide for 1 h at 110V or until the dye front was approximately halfway down the gel. Gels were imaged on a Molecular Imager Gel Doc XR+ (Biorad).

[7] = test system: MRSA clinical isolate SAU.2996; assay: MIC, microdilution broth; assay type: cell-based, S. aureus; conditions: Staphylococcus aureus, MRSA, read-out: MIC
Description: as §1

[8] = test system: MRSA clinical isolate SAU.3021; assay: MIC, microdilution broth; assay type: cell-based, S. aureus; conditions: Staphylococcus aureus, MRSA, read-out: MIC
Description: as §1

[9] = test system: MRSA clinical isolate SAU.3025; assay: MIC, microdilution broth; assay type: cell-based, S. aureus; conditions: Staphylococcus aureus
Description: as §1

[10] = test system: MRSA clinical isolate SAU.419; assay: MIC, microdilution broth; assay type: cell-based, S. aureus; conditions: Staphylococcus aureus, MRSA, read-out: MIC
Description: as §1

[11] = test system: MRSA clinical isolate SAU.446; assay: MIC, microdilution broth; assay type: cell-based, S. aureus; conditions: Staphylococcus aureus
Description: as §1

[12] = test system: MRSA clinical isolate SAU.555; assay: MIC, microdilution broth; assay type: cell-based, S. aureus; conditions: Staphylococcus aureus
Description: as §1

[13] = test system: MRSA clinical isolate SAU.669; assay: MIC, microdilution broth; assay type: cell-based, S. aureus; conditions: Staphylococcus aureus
Description: as §1

[14] = test system: MRSA clinical isolate SAU.494; assay: microbe, parasite or virus in culture; assay type: cell-based, S. aureus; conditions: Staphylococcus aureus
Description: as §1

[15] = test system: MRSA clinical isolate SAU.1118; assay: MIC, microdilution broth; assay type: cell-based, S. aureus; conditions: Staphylococcus aureus
Description: as §1

[16] = test system: MRSA clinical isolate SAU.3024; assay: MIC, microdilution broth; assay type: cell-based, S. aureus; conditions: Staphylococcus aureus
Description: as §1

[17] = test system: MRSA clinical isolate SAU.489; assay: microbe, parasite or virus in culture; assay type: cell-based, S. aureus; conditions: Staphylococcus aureus
Description: as §1

[18] = test system: MRSA clinical isolate SAU.491; assay: microbe, parasite or virus in culture; assay type: cell-based, S. aureus; conditions: Staphylococcus aureus
Description: as §1

[19] = test system: MRSA clinical isolate SAU.492; assay: microbe, parasite or virus in culture; assay type: cell-based, S. aureus; conditions: Staphylococcus aureus
Description: as §1

[20] = test system: MRSA clinical isolate SAU.493; assay: microbe, parasite or virus in culture; assay type: cell-based, S. aureus; conditions: Staphylococcus aureus
Description: as §1

[21] = test system: MRSA clinical isolate SAU.495; assay: microbe, parasite or virus in culture; assay type: cell-based, S. aureus; conditions: Staphylococcus aureus
Description: as §1

[22] = test system: MRSA clinical isolate SAU.496; assay: microbe, parasite or virus in culture; assay type: cell-based, S. aureus; conditions: Staphylococcus aureus
Description: as §1

[23] = test system: MRSA clinical isolate SAU.708; assay: microbe, parasite or virus in culture; assay type: cell-based, S. aureus; conditions: Staphylococcus aureus
Description: as §1

[24] = test system: MRSA clinical isolate SAU.709; assay: microbe, parasite or virus in culture; assay type: cell-based, S. aureus; conditions: Staphylococcus aureus
Description: as §1

[25] = test system: MRSA clinical isolate SAU.710; assay: microbe, parasite or virus in culture; assay type: cell-based, S. aureus; conditions: Staphylococcus aureus
Description: as §1

T1 sequence (P11388 whole entry): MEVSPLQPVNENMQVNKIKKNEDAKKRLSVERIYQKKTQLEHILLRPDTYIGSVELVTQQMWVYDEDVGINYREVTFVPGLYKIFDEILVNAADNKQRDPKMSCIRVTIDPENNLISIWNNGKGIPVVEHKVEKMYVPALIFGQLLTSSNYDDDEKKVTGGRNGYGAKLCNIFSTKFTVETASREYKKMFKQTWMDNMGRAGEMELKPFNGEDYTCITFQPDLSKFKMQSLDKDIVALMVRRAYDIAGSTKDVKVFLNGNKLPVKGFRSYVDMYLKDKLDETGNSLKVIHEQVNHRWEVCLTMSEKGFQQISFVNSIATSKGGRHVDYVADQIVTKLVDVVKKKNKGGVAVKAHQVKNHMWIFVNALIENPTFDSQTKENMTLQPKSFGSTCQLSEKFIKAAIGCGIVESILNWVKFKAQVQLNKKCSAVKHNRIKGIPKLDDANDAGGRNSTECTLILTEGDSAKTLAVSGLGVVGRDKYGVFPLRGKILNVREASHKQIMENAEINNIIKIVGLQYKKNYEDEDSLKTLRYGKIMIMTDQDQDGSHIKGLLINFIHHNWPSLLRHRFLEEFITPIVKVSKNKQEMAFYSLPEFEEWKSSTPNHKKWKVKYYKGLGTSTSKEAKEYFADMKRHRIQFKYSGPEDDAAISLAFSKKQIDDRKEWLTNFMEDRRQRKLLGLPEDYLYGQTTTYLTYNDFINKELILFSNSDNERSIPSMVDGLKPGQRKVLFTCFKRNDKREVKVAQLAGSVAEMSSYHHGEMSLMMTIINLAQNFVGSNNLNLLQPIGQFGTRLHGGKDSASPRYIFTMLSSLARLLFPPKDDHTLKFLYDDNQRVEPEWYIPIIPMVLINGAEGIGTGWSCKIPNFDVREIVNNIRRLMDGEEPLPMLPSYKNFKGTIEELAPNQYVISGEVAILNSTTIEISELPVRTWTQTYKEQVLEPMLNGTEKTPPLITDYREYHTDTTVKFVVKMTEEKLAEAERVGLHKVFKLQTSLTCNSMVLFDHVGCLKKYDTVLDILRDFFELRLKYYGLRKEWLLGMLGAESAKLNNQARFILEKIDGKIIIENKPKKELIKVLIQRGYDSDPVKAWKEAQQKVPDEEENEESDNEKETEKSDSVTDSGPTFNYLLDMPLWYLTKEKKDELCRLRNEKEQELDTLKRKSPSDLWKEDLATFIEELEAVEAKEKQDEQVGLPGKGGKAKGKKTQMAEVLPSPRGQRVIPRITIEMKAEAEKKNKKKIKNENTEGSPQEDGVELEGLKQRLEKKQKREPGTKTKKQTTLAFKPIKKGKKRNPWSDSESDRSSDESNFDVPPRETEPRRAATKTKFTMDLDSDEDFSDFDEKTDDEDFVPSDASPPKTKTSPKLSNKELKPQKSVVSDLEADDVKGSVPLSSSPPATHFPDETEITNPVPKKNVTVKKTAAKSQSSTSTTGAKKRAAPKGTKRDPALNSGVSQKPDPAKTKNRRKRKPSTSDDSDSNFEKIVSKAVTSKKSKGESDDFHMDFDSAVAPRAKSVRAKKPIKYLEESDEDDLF

CCCCCn1c(=O)cc(C)c2cc3c(C)cc(=O)n4c3c(c21)OC4 [Compound 9]
MIC [1]: 32 µg/mL (≈ 94.6 µM) | solubility (physchem [2]): 26.9 mM (≈ 9100 µg/mL)

Cc1cc(=O)n2c3c(c4c(cc13)c(C)cc(=O)n4CC(C)(C)C)OC2 [Compound 12]
MIC [1]: 32 µg/mL (≈ 94.6 µM) | solubility (physchem [2]): 38.7 mM (≈ 13100 µg/mL)

CCc1cc(=O)n2c3c(c4c(cc13)c(C)cc(=O)n4C)OC2 [DNM-3]
Solubility in pH 7.4 PBS (physchem [3]): 27 μM | MIC [1]: 8 µg/mL (≈ 27 µM) | AUC ([4]; 50 mg kg^−1 oral dose): 4000 ng·h/mL | Cmax / peak serum concentration ([4]; 50 mg kg^−1 oral dose): 1260 ng/mL | Cmax ([4]; 50 mg kg^−1 oral dose, read-out: Cmax / peak serum concentration): 4.3 µM | AUC ([4]; 50 mg kg^−1 oral gavage): 4000 ng·h/mL | Cmax ([4]; 50 mg kg^−1 oral gavage): 1260 ng/mL | Tmax ([4]; 50 mg kg^−1 oral gavage): 1.1 h | t1/2 ([4]; 50 mg kg^−1 oral gavage): 1.2 h | solubility (physchem [2]): 1.3 mM (≈ 385 µg/mL)

Cc1cc(=O)n2c3c(c4c(cc13)c(CO)cc(=O)n4C)OC2 [nybomycin]
tolerability in mice [5]: well tolerated | activity in infected mice [6]: no activity

Cc1cc(=O)n(C)c2c3c4c(cc12)c(C)cc(=O)n4C(C)O3 (stereo not shown) [Compound 5]
MIC [1]: 4 µg/mL (≈ 13.5 µM) | solubility (physchem [2]): 3.4 mM (≈ 1010 µg/mL)

CCCc1cc(=O)n2c3c(c4c(cc13)c(C)cc(=O)n4C)OC2 [Compound 6]
MIC [1]: 16 µg/mL (≈ 51.6 µM) | solubility (physchem [2]): 6.4 mM (≈ 1990 µg/mL)

COc1cccc2c1C(=O)c1c(O)c3c(c(O)c1C2=O)C[C@@](O)(C(=O)CO)C[C@@H]3O[C@H]1C[C@H](N)[C@H](O)[C@H](C)O1 [doxorubicin, reference compound]
concentration inhibiting human topoisomerase II (human topoisomerase II): 3 µM

Cc1cc(=O)n2c3c(c4c(cc13)c(C)cc(=O)n4CC(C)C)OC2 [Compound 11]
MIC [1]: > 32 µg/mL | solubility (physchem [2]): 7.1 mM (≈ 2300 µg/mL)

CCCCCCn1c(=O)cc(C)c2cc3c(C)cc(=O)n4c3c(c21)OC4 [Compound 10]
MIC [1]: > 64 µg/mL | solubility (physchem [2]): 56.7 mM (≈ 20000 µg/mL)

CCc1cc(=O)n(C)c2c3c4c(cc12)c(CC)cc(=O)n4CO3 [Compound 13]
Solubility in pH 7.4 PBS (physchem [3]): 48 μM | MIC [1]: > 32 µg/mL | solubility (physchem [2]): 5.2 mM (≈ 1610 µg/mL)

CCCc1cc(=O)n(C)c2c3c4c(cc12)c(C)cc(=O)n4CO3 [Compound 7]
MIC [1]: 16 µg/mL (≈ 51.6 µM) | solubility (physchem [2]): 5.8 mM (≈ 1800 µg/mL)

CCc1cc(=O)n(C)c2c3c4c(cc12)c(C)cc(=O)n4CO3 [Compound 4]
Solubility in pH 7.4 PBS (physchem [3]): 53 μM | MIC [1]: 8 µg/mL (≈ 27 µM) | solubility (physchem [2]): 4.7 mM (≈ 1390 µg/mL)

CCCc1cc(=O)n(C)c2c3c4c(cc12)c(CCC)cc(=O)n4CO3 [Compound 14]
solubility at 1 h (physchem [3]; pH 7.4, aqueous buffer, thermodynamic from solid): < 0.001 mM | MIC [1]: > 32 µg/mL | solubility (physchem [2]): 18.3 mM (≈ 6190 µg/mL)

CCCCn1c(=O)cc(CCC)c2cc3c(CCC)cc(=O)n4c3c(c21)OC4 [Compound 15]
MIC [1]: > 32 µg/mL | solubility (physchem [2]): 4.2 mM (≈ 1600 µg/mL)

CO[C@@H]1[C@@H](OC(N)=O)[C@@H](O)[C@H](Oc2ccc3c(O)c(NC(=O)c4ccc(O)c(CC=C(C)C)c4)c(=O)oc3c2C)OC1(C)C [Novo, Novobiocin]
MIC [7]: 0.5 µg/mL (≈ 0.816 µM) | MIC [8]: 0.25 µg/mL (≈ 0.408 µM) | MIC [9]: 0.25 µg/mL (≈ 0.408 µM) | MIC [10]: 0.25 µg/mL (≈ 0.408 µM) | MIC [11]: 0.5 µg/mL (≈ 0.816 µM) | MIC [12]: 0.25 µg/mL (≈ 0.408 µM) | MIC [13]: 0.5 µg/mL (≈ 0.816 µM) | MIC ([14]; read-out: MIC): 0.125 µg/mL (≈ 0.204 µM)

CN[C@H](CC(C)C)C(=O)N[C@H]1C(=O)N[C@@H](CC(N)=O)C(=O)N[C@H]2C(=O)N[C@H]3C(=O)N[C@H](C(=O)N[C@H](C(=O)O)c4cc(O)cc(O)c4-c4cc3ccc4O)[C@H](O)c3ccc(c(Cl)c3)Oc3cc2cc(c3O[C@@H]2O[C@H](CO)[C@@H](O)[C@H](O)[C@H]2O[C@H]2C[C@](C)(N)[C@H](O)[C@H](C)O2)Oc2ccc(cc2Cl)[C@H]1O [VANC, vancomycin, reference compound]
MIC [1]: 1 µg/mL (≈ 0.69 µM) | MIC [15]: 2 µg/mL (≈ 1.38 µM) | MIC [7]: 1 µg/mL (≈ 0.69 µM) | MIC [8]: 1 µg/mL (≈ 0.69 µM) | MIC [16]: 2 µg/mL (≈ 1.38 µM) | MIC [17]: 2 µg/mL (≈ 1.38 µM) | MIC [18]: 2 µg/mL (≈ 1.38 µM) | MIC [19]: 1 µg/mL (≈ 0.69 µM) | MIC [20]: 1 µg/mL (≈ 0.69 µM) | MIC [14]: 1 µg/mL (≈ 0.69 µM) | MIC [21]: 2 µg/mL (≈ 1.38 µM) | MIC [22]: 1 µg/mL (≈ 0.69 µM) | MIC [23]: 2 µg/mL (≈ 1.38 µM) | MIC [24]: 1 µg/mL (≈ 0.69 µM) | MIC [25]: 2 µg/mL (≈ 1.38 µM)
